Measured values: PMC9712021 (Advances in Pharmacological and Pharmaceutical Sciences, 2022)

Experiments:
Artemia salina = Artemia salina bioassay (brine shrimp lethality bioassay)
Experimental: This test was carried out with a slight modification, as described by Amaral et al.. Briefly, shrimp cysts were incubated in a small aquarium containing a brine solution (50 mg of cysts and 300 mL of brine) for 48 h with direct lighting. […] […] In the negative (NC) and positive (PC) control groups, saline solution and potassium dichromate (K2Cr2O7) were added, respectively. The concentration range used in the case of the PC group was 31.25 to 500 μg/mL.

[1] = Hemolytic activity in mice erythrocytes; assay type: cell-based, Mus musculus; conditions: male, Swiss albino, mouse, 37°C, 2 h
Experimental: (§1) This test was performed on adult Swiss albino mouse (Mus musculus) erythrocytes. The mouse was collected from the Central Animal House of the Federal University of Piaui, Brazil. It was allowed free access to standard food and water ad libitum and was kept under controlled lighting (12 h dark/light cycles) at 24 ± 2°C. Blood was collected from the retro-orbital plexus of the mouse (male, 24 gm body weight). Hemolytic activity in mouse erythrocytes was performed, according to Jamialahmadi et al..

mouse erythrocytes = assay: Hemolytic activity in mice erythrocytes; assay type: cell-based; conditions: for Hemolysis (%): 37°C, 2 h
Experimental: as §1

[2] = test system: S. cerevisiae EG103 (SODWT); assay: S. cerevisiae central disc test, oxidative damage, strain SODWT; assay type: cell-based, Saccharomyces cerevisiae
Description: (§2) The central disc test was done according to the method presented by Islam et al.. Superoxide dismutase (CuZnSOD-Sod1) is a cytosolic enzyme that is faulty in strain EG118, whereas mitochondrial SOD is faulty in strain EG110 (MnSOD-Sod2). The strain EG133 has both Sod1 and Sod2 defects, while EG223 has a cytosolic catalase deficiency (Cat1). While EG103 is a competent strain that is identical to the wild-type (SODWT), EG is a dual isogenic strain for the Sod1 and Cat1 genes.

[3] = test system: S. cerevisiae EG118 (Sod1∆); assay: S. cerevisiae central disc test, oxidative damage, strain Sod1∆; assay type: cell-based, Saccharomyces cerevisiae
Description: as §2

[4] = test system: S. cerevisiae EG110 (Sod2∆); assay: S. cerevisiae central disc test, oxidative damage, strain Sod2∆; assay type: cell-based, Saccharomyces cerevisiae
Description: as §2

[5] = test system: S. cerevisiae EG133 (Sod1∆Sod2∆); assay: S. cerevisiae central disc test, oxidative damage, strain Sod1∆Sod2∆; assay type: cell-based, Saccharomyces cerevisiae
Description: as §2

[6] = test system: S. cerevisiae EG223 (Cat1∆); assay: S. cerevisiae central disc test, oxidative damage, strain Cat1∆; assay type: cell-based, Saccharomyces cerevisiae
Description: as §2

[7] = test system: S. cerevisiae EG (Sod1∆Cat1∆); assay: S. cerevisiae central disc test, oxidative damage, strain Sod1∆Cat1∆; assay type: cell-based, Saccharomyces cerevisiae
Description: as §2

[8] = test system: S. cerevisiae strains (SODWT, Sod1Δ, Sod2Δ, Cat1Δ, Sod1/Sod2Δ, Cat1Δ/Sod1Δ); assay: In vivo antioxidant (S. cerevisiae) test, all strains tested; assay type: cell-based, Saccharomyces cerevisiae
Description: as §2

In the case of `CC(C)CCCC(C)CCO` (stereo not drawn) [3,7-Dimethyl-1-octanol, 3,7-dimethyl-1-octanol], the “cytotoxic effects in the A. Salina test” value (Artemia salina; 31.25–500 μg/mL) is reported as “did not exhibit significant cytotoxic effects”, the “concentration from which toxicity increased in a dose-dependent manner” value (Artemia salina; 48 h of exposure) is reported as 125 µg/mL and the hemolysis at 2 h, 31.25 μg/mL ([1]; mouse erythrocyte suspension, pH 7.4, 31.25 μg/mL) is reported as 3.66 ± 0.64%. For the same molecule, the hemolysis at 2 h, 62.5 μg/mL ([1]; mouse erythrocyte suspension, pH 7.4, 62.5 μg/mL) was 4.53 ± 0.06%, the hemolysis at 2 h, 250 μg/mL ([1]; mouse erythrocyte suspension, pH 7.4, 250 μg/mL) was 5.64 ± 0.74% and the hemolysis at 2 h, 500 μg/mL ([1]; mouse erythrocyte suspension, pH 7.4, 500 μg/mL) was 5.66 ± 0.56%. For the same molecule, the hemolysis at 2 h, 125 μg/mL ([1]; pH 7.4, 125 μg/mL) was 5.33 ± 0.75%, the “cytotoxic effects in the hemolysis test” value (mouse erythrocytes; 31.25–500 μg/mL) was “did not exhibit significant cytotoxic effects” and the oxidative damage ([2]; 0.9 μg/mL) was 1.50 ± 0.70. For the same molecule, the oxidative damage ([2]; 1.8 μg/mL) was 1.50 ± 0.70, the oxidative damage ([2]; 7.2 μg/mL) was 2.50 ± 0.70 and the oxidative damage ([2]; 14.4 μg/mL) was 2.00 ± 1.41. The oxidative damage ([2]; 32 μg/mL) was 2.00 ± 0.00, the oxidative damage ([2]; 64 μg/mL) was 1.50 ± 0.70 and the oxidative damage ([2]; 128 μg/mL) was 1.00 ± 1.41. It also gave an oxidative damage ([2]; 3.6 mg/mL) of 2.00 ± 0.00, an oxidative damage ([2]; 256 mg/mL) of 0.50 ± 0.70 and an oxidative damage ([2]; 500 mg/mL) of 2.50 ± 0.70. The oxidative damage ([3]; 0.9 μg/mL) was 0.50 ± 0.70, the oxidative damage ([3]; 1.8 μg/mL) was 0.00 ± 0.00 and the oxidative damage ([3]; 7.2 μg/mL) was 1.00 ± 0.00. It also gave an oxidative damage ([3]; 14.4 μg/mL) of 1.00 ± 1.41, an oxidative damage ([3]; 32 μg/mL) of 2.50 ± 0.70 and an oxidative damage ([3]; 64 μg/mL) of 3.00 ± 0.00. It also gave an oxidative damage ([3]; 128 μg/mL) of 1.50 ± 0.70, an oxidative damage ([3]; 3.6 mg/mL) of 1.50 ± 0.70 and an oxidative damage ([3]; 256 mg/mL) of 2.50 ± 0.70. It also gave an oxidative damage ([3]; 500 mg/mL) of 3.00 ± 0.00, an oxidative damage ([4]; 0.9 μg/mL) of 1.50 ± 0.70 and an oxidative damage ([4]; 1.8 μg/mL) of 2.00 ± 0.00. The oxidative damage ([4]; 7.2 μg/mL) was 2.50 ± 0.70, the oxidative damage ([4]; 14.4 μg/mL) was 1.50 ± 0.70 and the oxidative damage ([4]; 32 μg/mL) was 3.00 ± 0.00. The oxidative damage ([4]; 64 μg/mL) was 1.00 ± 0.00, the oxidative damage ([4]; 128 μg/mL) was 1.50 ± 0.70 and the oxidative damage ([4]; 3.6 mg/mL) was 2.50 ± 0.70. The oxidative damage ([4]; 256 mg/mL) was 1.00 ± 1.41, the oxidative damage ([4]; 500 mg/mL) was 2.50 ± 0.70 and the oxidative damage ([5]; 0.9 μg/mL) was 1.50 ± 0.70. It also gave an oxidative damage ([5]; 1.8 μg/mL) of 1.00 ± 1.41, an oxidative damage ([5]; 7.2 μg/mL) of 2.50 ± 0.70 and an oxidative damage ([5]; 14.4 μg/mL) of 2.00 ± 0.00. It also gave an oxidative damage ([5]; 32 μg/mL) of 2.50 ± 0.70, an oxidative damage ([5]; 64 μg/mL) of 3.50 ± 0.70 and an oxidative damage ([5]; 128 μg/mL) of 3.50 ± 0.70. The oxidative damage ([5]; 3.6 mg/mL) was 2.00 ± 1.41, the oxidative damage ([5]; 256 mg/mL) was 3.00 ± 1.41 and the oxidative damage ([5]; 500 mg/mL) was 2.50 ± 0.70. The oxidative damage ([6]; 0.9 μg/mL) was 2.50 ± 0.70, the oxidative damage ([6]; 1.8 μg/mL) was 3.50 ± 0.70 and the oxidative damage ([6]; 7.2 μg/mL) was 4.00 ± 0.00. The oxidative damage ([6]; 14.4 μg/mL) was 3.50 ± 0.70, the oxidative damage ([6]; 32 μg/mL) was 3.50 ± 2.12 and the oxidative damage ([6]; 64 μg/mL) was 3.50 ± 0.70. It also gave an oxidative damage ([6]; 128 μg/mL) of 3.50 ± 2.12, an oxidative damage ([6]; 3.6 mg/mL) of 2.50 ± 0.70 and an oxidative damage ([6]; 256 mg/mL) of 2.50 ± 2.12. For the same molecule, the oxidative damage ([6]; 500 mg/mL) was 3.00 ± 1.41, the oxidative damage ([7]; 0.9 μg/mL) was 2.50 ± 0.70 and the oxidative damage ([7]; 1.8 μg/mL) was 3.00 ± 0.00. The oxidative damage ([7]; 7.2 μg/mL) was 3.00 ± 1.41, the oxidative damage ([7]; 14.4 μg/mL) was 2.00 ± 2.82 and the oxidative damage ([7]; 32 μg/mL) was 3.50 ± 0.70. For the same molecule, the oxidative damage ([7]; 64 μg/mL) was 3.00 ± 1.41, the oxidative damage ([7]; 128 μg/mL) was 4.00 ± 1.41 and the oxidative damage ([7]; 256 μg/mL) was 3.00 ± 0.00. The oxidative damage ([7]; 3.6 mg/mL) was 4.00 ± 1.41, the oxidative damage ([7]; 500 mg/mL) was 3.50 ± 0.70 and the “percentage modulation of oxidative damage caused by the stressor H2O2” value ([8]; all strains and concentrations tested) was “more than 60%”. The “induction of oxidative damage” value ([8]; any concentration, any of the tested S. cerevisiae strains) was “did not induce oxidative damage”.

With Triton X-100 [reference compound] the “Hemolysis (%)” value (mouse erythrocytes; 31.25 μg/mL) was 100 ± 0.00^∗ %, the “Hemolysis (%)” value (mouse erythrocytes; 62.5 μg/mL) was 100 ± 0.00^∗ % and the “Hemolysis (%)” value (mouse erythrocytes; 125 μg/mL) was 100 ± 0.00^∗ %. The “Hemolysis (%)” value (mouse erythrocytes; 250 μg/mL) was 100 ± 0.00^∗ % and the “Hemolysis (%)” value (mouse erythrocytes; 500 μg/mL) was 100 ± 0.00^∗ %.
